These results are taken from patent US9061984B2 (University of Louisville Research Foundation, Inc., priority 2008, dated 2015).

Molecules are shown by their SMILES. Converted amounts (≈) assume the structure as drawn.

The test system of one series is axenic amastigotes of L. amazonensis (strain MHOM/BR/76/LTB-012).
Experiment: not given
Conditions: Table 8b.
For `COc1ccc(/C=N\Nc2ncnc3sc4c(c23)CCCC4)cc1` [II-10], the “Selectivity Index” value is 1.3.

Take `C(=N/Nc1ncnc2sc3c(c12)CCCC3)/c1ccco1` [II-18]: the “Selectivity Index” value is 0.6.

Turning to `FC(F)(F)c1ccc(/C=N\Nc2ncnc3sc4c(c23)CCCC4)cc1` [II-24], the “Selectivity Index” value is reported as 4.1.

Test system in the next series: not listed separately
Briefly: Toxicity to peritoneal macrophages (Trypan Blue count). Format: cell-based, BALB/C mouse. To be noted: BALB/C, mouse, Cytotoxicity Macrophages IC50.
On to `COc1ccc(/C=N\Nc2ncnc3sc4c(c23)CCCC4)cc1` [II-10], for which the midpoint of inhibition, the IC50 at 48 h, lay at 21.6 µM.

Regarding `C(=N/Nc1ncnc2sc3c(c12)CCCC3)/c1ccco1` [II-18], inhibition was half-maximal at 0.7 µM (IC50 at 48 h).

Turning to `FC(F)(F)c1ccc(/C=N\Nc2ncnc3sc4c(c23)CCCC4)cc1` [II-24], half-maximal inhibition (IC50 at 48 h) required 3.1 µM.

Test system in the next series: not listed separately
Briefly: Cytotoxicity on VERO cells (MTT), anti-T. cruzi study. To be noted: African green monkey, VERO cells, Cytotoxicity VERO Lab B, Lab B.
In the case of `COc1ccc(/C=N\Nc2ncnc3sc4c(c23)CCCC4)cc1` [II-10], the IC50 (usually the point on the concentration scale where inhibition reaches its midpoint) was 6 mg/L (≈ 17.7 µM).

Consider `C(=N/Nc1ncnc2sc3c(c12)CCCC3)/c1ccco1` [II-18], for which inhibition was half-maximal at 3 mg/L (≈ 10.1 µM) (IC50).

As for `FC(F)(F)c1ccc(/C=N\Nc2ncnc3sc4c(c23)CCCC4)cc1` [II-24], the IC50 came to 3 mg/L (≈ 7.97 µM).

A further series has as its system non-replicating persistence Mycobacterium tuberculosis (NRP-TB). Briefly: Low oxygen recovery assay (LORA). Format: cell-based. To be noted: Mycobacterium tuberculosis; anaerobic 10 days, 28 hour recovery; value in brackets.
Take `COc1ccc(/C=N\Nc2ncnc3sc4c(c23)CCCC4)cc1` [II-10]: the MIC (commonly the least concentration at which growth counts as inhibited) was 9.1 mg/L (≈ 26.9 µM).

In the case of `C(=N/Nc1ncnc2sc3c(c12)CCCC3)/c1ccco1` [II-18], the MIC was 2.9 mg/L (≈ 9.72 µM).

On to `FC(F)(F)c1ccc(/C=N\Nc2ncnc3sc4c(c23)CCCC4)cc1` [II-24], for which inhibition of growth (MIC) required 6 mg/L (≈ 15.9 µM).

The series is the same for the next values; noted with them: VERO vs LORA MIC; value in brackets.
For the compound `COc1ccc(/C=N\Nc2ncnc3sc4c(c23)CCCC4)cc1` [II-10], the “Selectivity Index LORA” value amounted to 8.5.

Consider `C(=N/Nc1ncnc2sc3c(c12)CCCC3)/c1ccco1` [II-18], for which the “Selectivity Index LORA” value is reported as 4.3.

As for `FC(F)(F)c1ccc(/C=N\Nc2ncnc3sc4c(c23)CCCC4)cc1` [II-24], the “Selectivity Index LORA” value is listed as 5.5 (5.5).

A further series relates to HT-29 cells. Briefly: Cell growth inhibition bioassay (sulforhodamine B). To be noted: Homo sapiens, HT-29; 48 h, SRB; read-out: GI50 in indicated cell line: HT-29. Format: cell-based, human. In short, it runs like this: (§1)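 Cells were exposed to compound alongside matched solvent controls, then stained with sulforhodamine B. Percent growth inhibition was calculated from dye absorbance against the control.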
As to `COc1ccc(/C=N\Nc2ncnc3sc4c(c23)CCCC4)cc1` [II-10], the GI50 (in general, the concentration giving 50% growth inhibition) amounted to 5.9 mg/L (≈ 17.4 µM).

Consider `C(=N/Nc1ncnc2sc3c(c12)CCCC3)/c1ccco1` [II-18], for which the GI50 worked out at 2.5 mg/L (≈ 8.38 µM).

`FC(F)(F)c1ccc(/C=N\Nc2ncnc3sc4c(c23)CCCC4)cc1` [II-24]: the GI50 amounted to 2.6 mg/L (≈ 6.91 µM).

For the next series, the system named is M-14 cells. Put plainly: Cell growth inhibition bioassay (sulforhodamine B). Type of series: cell-based, human. Conditions: Homo sapiens, M14; 48 h, SRB; read-out: GI50 in indicated cell line: M-14. Put shortly:
as §1
Regarding `COc1ccc(/C=N\Nc2ncnc3sc4c(c23)CCCC4)cc1` [II-10], the GI50 came to 5.5 mg/L (≈ 16.3 µM).

As for `C(=N/Nc1ncnc2sc3c(c12)CCCC3)/c1ccco1` [II-18], the 50% growth inhibitory concentration (GI50) was 3.3 mg/L (≈ 11.1 µM).

`FC(F)(F)c1ccc(/C=N\Nc2ncnc3sc4c(c23)CCCC4)cc1` [II-24]: the GI50 turned out to be 6.4 mg/L (≈ 17 µM).

The next series has as its system MCF-7 cells. Briefly: Cell growth inhibition bioassay (sulforhodamine B). Format: cell-based, human. To be noted: Homo sapiens, MCF7; 48 h, SRB; read-out: GI50 in indicated cell line: MCF-7. In short, it runs like this:
as §1
For `COc1ccc(/C=N\Nc2ncnc3sc4c(c23)CCCC4)cc1` [II-10], the concentration for 50% growth inhibition (GI50) was determined as 4.2 mg/L (≈ 12.4 µM).

On to `C(=N/Nc1ncnc2sc3c(c12)CCCC3)/c1ccco1` [II-18], for which the concentration for 50% growth inhibition (GI50) was 0.3 mg/L (≈ 1.01 µM).

On to `FC(F)(F)c1ccc(/C=N\Nc2ncnc3sc4c(c23)CCCC4)cc1` [II-24], for which the GI50 was found to be 2 mg/L (≈ 5.31 µM).

Another series deals with K562 cells. Briefly: Cell growth inhibition bioassay (sulforhodamine B). Type of series: cell-based, human. Conditions: Homo sapiens, K562; 48 h, SRB; read-out: GI50 in indicated cell line: K562. In short, it runs like this:
as §1
As for `COc1ccc(/C=N\Nc2ncnc3sc4c(c23)CCCC4)cc1` [II-10], the GI50 stood at 4.7 mg/L (≈ 13.9 µM).

`C(=N/Nc1ncnc2sc3c(c12)CCCC3)/c1ccco1` [II-18]: the GI50 came to 1.2 mg/L (≈ 4.02 µM).

`FC(F)(F)c1ccc(/C=N\Nc2ncnc3sc4c(c23)CCCC4)cc1` [II-24]: the GI50 is 2.5 mg/L (≈ 6.64 µM).

The next series concerns H460 cells. Briefly: Cell growth inhibition bioassay (sulforhodamine B). Format: cell-based, human. To be noted: Homo sapiens, NCI-H460; 48 h, SRB; read-out: GI50 in indicated cell line: H460. In short, it runs like this:
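Human cancer cells (MCF-7 breast, DU145 and PC3 prostate, H460 large cell lung) were treated with compounds. Growth relative to solvent control was quantified by SRB protein stain.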
Turning to `COc1ccc(/C=N\Nc2ncnc3sc4c(c23)CCCC4)cc1` [II-10], the concentration for 50% growth inhibition (GI50) came out at 5.8 mg/L (≈ 17.1 µM).

As for `C(=N/Nc1ncnc2sc3c(c12)CCCC3)/c1ccco1` [II-18], the GI50 worked out at 2.1 mg/L (≈ 7.04 µM).

For `FC(F)(F)c1ccc(/C=N\Nc2ncnc3sc4c(c23)CCCC4)cc1` [II-24], the GI50 was determined as 5.8 mg/L (≈ 15.4 µM).

A further series concerns DU145 cells. Briefly: Cell growth inhibition bioassay (sulforhodamine B). Format: cell-based, human. To be noted: Homo sapiens, DU-145; 48 h, SRB; read-out: GI50 in indicated cell line: DU145. Put shortly: as §1
As for `COc1ccc(/C=N\Nc2ncnc3sc4c(c23)CCCC4)cc1` [II-10], the GI50 was 7.8 mg/L (≈ 23 µM).

For the compound `C(=N/Nc1ncnc2sc3c(c12)CCCC3)/c1ccco1` [II-18], the GI50 amounted to 4.7 mg/L (≈ 15.8 µM).

Consider `FC(F)(F)c1ccc(/C=N\Nc2ncnc3sc4c(c23)CCCC4)cc1` [II-24], for which the GI50 came to 5.6 mg/L (≈ 14.9 µM).

The next series has as its system Trypanosoma cruzi (Tulahuen C4). Briefly: In vitro anti-T. cruzi activity (β-galactosidase CPRG colorimetric assay in VERO monolayer). Format: cell-based. Conditions: IC50, VERO/IC50, T. cruzi; Lab B.
With `COc1ccc(/C=N\Nc2ncnc3sc4c(c23)CCCC4)cc1` [II-10], the “Selectivity Index Lab B” value worked out at 1.1.

`C(=N/Nc1ncnc2sc3c(c12)CCCC3)/c1ccco1` [II-18]: the “Selectivity Index Lab B” value was 0.6.

With `FC(F)(F)c1ccc(/C=N\Nc2ncnc3sc4c(c23)CCCC4)cc1` [II-24], the “Selectivity Index Lab B” value worked out at 0.8.

The same series, now with this note: Trypanosoma cruzi, TULAHUEN, Vero, Lab A; read-out: T. cruzi IC50 Lab A.
Consider `C(=N/Nc1ncnc2sc3c(c12)CCCC3)/c1ccco1` [II-18], for which the half-maximal inhibitory concentration (IC50) worked out at 1.2 mg/L (≈ 4.02 µM).

The same series, now with this note: Trypanosoma cruzi, TULAHUEN, Vero, Lab B; read-out: T. cruzi IC50 Lab B.
Regarding `COc1ccc(/C=N\Nc2ncnc3sc4c(c23)CCCC4)cc1` [II-10], the IC50 was found to be 5.4 mg/L (≈ 16 µM).

As for `C(=N/Nc1ncnc2sc3c(c12)CCCC3)/c1ccco1` [II-18], the IC50 turned out to be 4.8 mg/L (≈ 16.1 µM).

With `FC(F)(F)c1ccc(/C=N\Nc2ncnc3sc4c(c23)CCCC4)cc1` [II-24], the IC50 was determined as 4 mg/L (≈ 10.6 µM).

The subject of the next series is VERO cells. Briefly: Cell growth inhibition bioassay (sulforhodamine B). Format: cell-based, African Green Monkey. To be noted: Chlorocebus sabaeus, Vero; 48 h, SRB; read-out: GI50 in indicated cell line: VERO. In short, it runs like this:
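Cytotoxicity is read by sulforhodamine B colorimetry following the Skehan protocol; values are growth inhibition relative to solvent-only wells.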
`COc1ccc(/C=N\Nc2ncnc3sc4c(c23)CCCC4)cc1` [II-10]: the GI50 amounted to 6.4 mg/L (≈ 18.9 µM).

Consider `C(=N/Nc1ncnc2sc3c(c12)CCCC3)/c1ccco1` [II-18], for which the GI50 amounted to 2.6 mg/L (≈ 8.71 µM).

In the case of `FC(F)(F)c1ccc(/C=N\Nc2ncnc3sc4c(c23)CCCC4)cc1` [II-24], the GI50 was determined as 5.4 mg/L (≈ 14.3 µM).

Another series deals with 3T3 cells. Briefly: Cell growth inhibition bioassay (sulforhodamine B). Format: cell-based, mouse. To be noted: Mus musculus, NIH3T3; 48 h, SRB; read-out: GI50 in indicated cell line: 3T3. Put shortly:
as §1
In the case of `COc1ccc(/C=N\Nc2ncnc3sc4c(c23)CCCC4)cc1` [II-10], the GI50 was 5 mg/L (≈ 14.8 µM).

Take `C(=N/Nc1ncnc2sc3c(c12)CCCC3)/c1ccco1` [II-18]: the GI50 turned out to be 2.3 mg/L (≈ 7.71 µM).

Turning to `FC(F)(F)c1ccc(/C=N\Nc2ncnc3sc4c(c23)CCCC4)cc1` [II-24], the GI50 amounted to 4 mg/L (≈ 10.6 µM).

A further series concerns M. tuberculosis H37Rv. Put plainly: Conventional aerobic (MABA) culture assay, luminescence MIC. Format: cell-based, Mycobacterium tuberculosis. To be noted: Mycobacterium tuberculosis, 168 h; aerobic, 7 days, H37Rv.
On to `COc1ccc(/C=N\Nc2ncnc3sc4c(c23)CCCC4)cc1` [II-10], for which the MIC came to 24.1 mg/L (≈ 71.2 µM).

As for `C(=N/Nc1ncnc2sc3c(c12)CCCC3)/c1ccco1` [II-18], inhibition of growth (MIC) required 11.9 mg/L (≈ 39.9 µM).

Consider `FC(F)(F)c1ccc(/C=N\Nc2ncnc3sc4c(c23)CCCC4)cc1` [II-24], for which the minimum inhibitory concentration (MIC) came to 6.1 mg/L (≈ 16.2 µM).

The series is the same for the next values; noted with them: VERO vs MABA MIC.
On to `COc1ccc(/C=N\Nc2ncnc3sc4c(c23)CCCC4)cc1` [II-10], for which the “Selectivity Index H37Rv” value was 3.2.

`C(=N/Nc1ncnc2sc3c(c12)CCCC3)/c1ccco1` [II-18]: the “Selectivity Index H37Rv” value came out at 1.0.

Take `FC(F)(F)c1ccc(/C=N\Nc2ncnc3sc4c(c23)CCCC4)cc1` [II-24]: the “Selectivity Index H37Rv” value is reported as 5.5 (5.5).

A further series relates to axenic amastigotes of L. amazonensis (strain MHOM/BR/76/LTB-012). Put plainly: microbe, parasite or virus in culture. To be noted: Leishmania amazonensis, read-out: L. amazonensis IC50.
Turning to `COc1ccc(/C=N\Nc2ncnc3sc4c(c23)CCCC4)cc1` [II-10], the IC50 worked out at 16.1 µM.

Regarding `C(=N/Nc1ncnc2sc3c(c12)CCCC3)/c1ccco1` [II-18], the IC50 stood at 1.2 µM.

Turning to `FC(F)(F)c1ccc(/C=N\Nc2ncnc3sc4c(c23)CCCC4)cc1` [II-24], the IC50 turned out to be 0.7 µM.

Test system in the next series: not listed separately
Briefly: Cytotoxicity VERO cell (Table 6). Conditions: African green monkey, VERO cells.
Turning to `COc1ccc(/C=N\Nc2ncnc3sc4c(c23)CCCC4)cc1` [II-10], the IC50 was found to be 76.7 mg/L (≈ 227 µM).

`C(=N/Nc1ncnc2sc3c(c12)CCCC3)/c1ccco1` [II-18] registered an IC50 of 12.3 mg/L (≈ 41.2 µM).

`FC(F)(F)c1ccc(/C=N\Nc2ncnc3sc4c(c23)CCCC4)cc1` [II-24] came in with an IC50 of 33.5 mg/L (≈ 89 µM).
